Measured values published in paper PMC6037779, “Repurposing drugs to target the malaria parasite unfolding protein response” (Scientific Reports, 2018).
Where two headings read alike, the source gives them in different places. One block for each compound: values may come before it.

Experiments:
huGRP78-NBD [1] = biological target: T1, huGRP78-NBD (Homo sapiens, UniProt P11021); test: SPR (Biacore) binding to human GRP78-NBD
T1 construct: PfGRP78-NBD wild type and mutant, and human GRP78-NBD were buffered in 25 mM hepes pH 7.5
T1 sequence (P11021 26-407 limits assumed): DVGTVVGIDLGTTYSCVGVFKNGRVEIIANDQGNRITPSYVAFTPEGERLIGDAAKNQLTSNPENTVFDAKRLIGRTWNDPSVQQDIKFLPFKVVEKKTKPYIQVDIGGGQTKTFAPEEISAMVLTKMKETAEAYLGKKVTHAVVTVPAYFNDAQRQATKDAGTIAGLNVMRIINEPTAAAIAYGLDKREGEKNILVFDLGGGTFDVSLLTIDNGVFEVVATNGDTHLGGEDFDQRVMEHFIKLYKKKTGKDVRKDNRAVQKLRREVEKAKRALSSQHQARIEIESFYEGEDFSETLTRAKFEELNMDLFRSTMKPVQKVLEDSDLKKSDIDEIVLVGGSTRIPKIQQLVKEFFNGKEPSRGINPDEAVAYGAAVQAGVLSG
Experimental: (§1) To quantify the binding affinities of PfGRP78-NBD for the selected compounds, dissociation constants (Kd) were determined by surface plasmon resonance (SPR). […] Purified PfGRP78-FL, PfGRP78-NBD wild-type and mutant, and human GRP78-NBD were immobilized on a CM5 sensorchip using NHS/EDC coupling following the manufacturer protocol to a level of <10,000 RUs, a reference surfaces without immobilized proteins served as a control for nonspecific binding and refractive index changes. […] The running buffer was 10 mM HEPES, pH 7.4, 150 mM NaCl, 0.005% P20, 1% DMSO and 2 mM MgCl2. Buffer only injections were used as blanks. The Biacore responses recorded during the 30 seconds of the injection were used to estimate the association constant (kon) and the 300 seconds after the injection were used to estimate the dissociation constant (koff). All dissociation and kinetic constants were estimated using double subtracted sensorgrams[40] using BiaEvaluation Software (GE Healthcare). All the reported parasite dissociation constants (Kd) were estimated with affinity analysis, and all the reported human Kds were calculated from kinetic constants.

PfGRP78-NBD wt = biological target: T2, PfGRP78-NBD wt (Plasmodium falciparum, UniProt Q05866); test: biochemical; assay type: binding
T2 construct: His-tag (pET28-MHL, TEV site) (N, cleaved yes); made in house; host or cells: E. coli BL21(DE3)
Experimental: as §1

PfGRP78-NBD = biological target: T3, PfGRP78-NBD (Plasmodium falciparum, UniProt Q05866); test: DSF thermal shift, PfGRP78-NBD; assay type: binding; settings: compound 0.5 mM; shifts above or below 1 °C significant
T3 construct: His-tag (pET28-MHL, TEV site) (N, cleaved yes); made in house; host or cells: E. coli BL21(DE3)
Experimental: The Plasmodium and human GRP78 NBD differences were further characterized by measuring their interaction with ATP, ADP, and several compounds referenced in the literature as GRP78 inhibitors (Fig. 3a). Initially, their binding was determined using a DSF (Differential Scanning Fluorimetry) assay. In this assay, an interaction between the chaperone and a compound was measured as a change in the protein’s melting temperature (Tm), by subtracting the Tm of the protein by itself to the melting value of the protein in the presence of the compound. Differences above or below 1 °C between the melting temperatures (ΔTm) were considered indicative of a protein-compound interaction. As expected, the Plasmodium GRP78 chaperone interacted with both ATP and ADP. Four of the six compounds tested had significant effects on protein thermal stability (Fig. 3b).
DSF screening was carried out using a CFX96 Touch Real-Time PCR Detection System (BioRad, California). The PfGRP78-FL, PfGRP78-NBD wild type and mutant, and human GRP78-NBD were buffered in 25 mM hepes pH 7.5, 250 mM NaCl and assayed in a 96-well format. […]. The concentration was optimized for each protein to avoid saturation of the fluorescence detector. The GRP78 inhibitors were used at a final concentration of 0.5 mM. SYPRO Orange (Life Technologies, USA) was added as a fluorescence probe in a dilution of 1:1000. The experiments were conducted between 18 °C to 90 °C at a heating rate of 1 °C per minute. The recorded fluorescence reads were fitted to the Boltzmann sigmoid function using DMAN software. The inflection point of each fitted curve is defined as the melting temperature (Tm). The observed temperature shift, ΔTm, was recorded as the difference between Tm of the protein with ligand minus Tm of the protein without ligand. Thermal shifts above or below 1 °C were considered significant.

PfGRP78-NBD mut (Y39F) = biological target: T4, PfGRP78-NBD mut (Y39F) (Plasmodium falciparum, UniProt Q05866, Y39F); test: SPR (Biacore) binding to PfGRP78-NBD Y39F mutant; settings: ± standard error, 25 °C, read-out: affinity constant (Kd) determined by SPR, PfGRP78-NBD mut
T4 construct: His-tag (pET28-MHL, TEV site) (N, cleaved yes); made in house; host or cells: E. coli BL21(DE3)
Experimental: To quantify the binding affinities of PfGRP78-NBD for the selected compounds, dissociation constants (Kd) were determined by surface plasmon resonance (SPR). […] Purified PfGRP78-FL, PfGRP78-NBD wild-type and mutant, and human GRP78-NBD were immobilized on a CM5 sensorchip using NHS/EDC coupling following the manufacturer protocol to a level of <10,000 RUs, a reference surfaces without immobilized proteins served as a control for nonspecific binding and refractive index changes. Seven different concentrations of the ligands between 0.4 nM to 1 mM, were injected in triplicate over the sensor chip at 30 µL/min in random order. The running buffer was 10 mM HEPES, pH 7.4, 150 mM NaCl, 0.005% P20, 1% DMSO and 2 mM MgCl2. Buffer only injections were used as blanks. The Biacore responses recorded during the 30 seconds of the injection were used to estimate the association constant (kon) and the 300 seconds after the injection were used to estimate the dissociation constant (koff). All dissociation and kinetic constants were estimated using double subtracted sensorgrams[40] using BiaEvaluation Software (GE Healthcare). All the reported parasite dissociation constants (Kd) were estimated with affinity analysis, and all the reported human Kds were calculated from kinetic constants.

[2] = system: Plasmodium falciparum 3D7; test: In vitro growth inhibition assay (SYBR Green I), strain 3D7; assay type: cell-based; settings: read-out: EC50, growth inhibition, P. falciparum 3D7
Experimental: (§2) A major goal of our study was to evaluate the drug target potential of P. falciparum GRP78, thus we evaluated the effect of the chaperone inhibition on the malaria parasite. Our approach took advantage of several GRP78 inhibitors (Fig. 3a) previously characterized against human cancer cell lines, which were commercially available[20],[24]–[27]. These compounds were tested against two different parasite strains with opposite sensitivity towards the antimalarial drug chloroquine, 3D7 (sensitive) and W2 (resistant). […] A synchronized P. falciparum culture, with over 80% ring forms, was used in the growth inhibition assay. Each strain was assayed at 0.5% parasitaemia and 1.5% hematocrit. A 190 µL aliquot of parasite culture was dispensed per well to microplates that were pre-dispensed with the compounds at various dilutions. […] Dilutions of GRP78 inhibitors and DHA were prepared in water with a final concentration of DMSO below 0.05% (v/v). […] After incubation, the plates were subject to a freeze-thaw cycle (−80 °C) and the parasite growth was quantified by the SYBR Green I method as previously described. Briefly, 100 µl of homogenized parasite culture was transferred into 96-well black plates. 100 µl of SYBR Green lysis buffer (2x SYBR Green I, 100 mM Tris-HCl pH 7.5, 10 mM EDTA, 0.016% Saponin and 1.6% Triton X-100) were added to each well. The plates were incubated at room temperature in darkness for 1 hour.
(§3) Growth inhibition experiments were conducted at least three times per compound. […] The statistical analysis was performed with the software Prism 7 (GraphPad Software, San Diego, CA).

Plasmodium falciparum W2 = test: In vitro growth inhibition assay (SYBR Green I), strain W2; assay type: cell-based; settings: read-out: EC50, growth inhibition, P. falciparum W2
Experimental: as §2, §3

PfGRP78-FL = biological target: T5, PfGRP78-FL (Plasmodium falciparum, UniProt Q05866, DEL449-452/N453V/P455G/Q454G/T226A); test: DSF thermal shift, PfGRP78 full-length; assay type: binding; settings: read-out: ΔTm (DSF), PfGRP78-FL
T5 construct: His-tag (TEV site) (N, cleaved yes); made in house; host or cells: E. coli BL21(DE3); gene synthesized by Life Technologies
Experimental: (§4) Initially, their binding was determined using a DSF (Differential Scanning Fluorimetry) assay. In this assay, an interaction between the chaperone and a compound was measured as a change in the protein’s melting temperature (Tm), by subtracting the Tm of the protein by itself to the melting value of the protein in the presence of the compound. Differences above or below 1 °C between the melting temperatures (ΔTm) were considered indicative of a protein-compound interaction.
(§5) DSF screening was carried out using a CFX96 Touch Real-Time PCR Detection System (BioRad, California). The PfGRP78-FL, PfGRP78-NBD wild type and mutant, and human GRP78-NBD were buffered in 25 mM hepes pH 7.5, 250 mM NaCl and assayed in a 96-well format. The final concentration of the protein sample was optimized between 0.05 and 0.2 mg/ml for each protein. The concentration was optimized for each protein to avoid saturation of the fluorescence detector. The GRP78 inhibitors were used at a final concentration of 0.5 mM. SYPRO Orange (Life Technologies, USA) was added as a fluorescence probe in a dilution of 1:1000.

huGRP78-NBD [3] = biological target: T1, huGRP78-NBD; test: DSF thermal shift, human GRP78-NBD; assay type: binding; settings: compound 0.5 mM
Experimental: as §4, §5

HCT-116 = test: Growth inhibition of human cell line; assay type: cell-based
Experimental: as §3

[4] = ± standard error, calculated from kinetic constants, 25 °C
[5] = ± standard error, affinity analysis, 25 °C
[6] = Plasmodium falciparum, 3D7, 72 h
[7] = Plasmodium falciparum, W2, 72 h

SMILES: CCN(CC)c1ncnc2c1ncn2[C@H]1O[C@@H](COP(=O)(O)OP(=O)(O)C(Br)(Br)P(=O)(O)O)[C@H](O)[C@@H]1O [ARL-67156]
affinity constant (Kd) determined by SPR, huGRP78-NBD (huGRP78-NBD [1]; [4]): N.B. | affinity constant (Kd) determined by SPR, PfGRP78-NBD wt (PfGRP78-NBD wt; [5]): N.B. | DSF effect on thermal stability of PfGRP78-NBD (PfGRP78-NBD): non-binders

SMILES: Nc1ncnc2c1ncn2[C@@H]1O[C@H](COP(=O)(O)OP(=O)(O)OP(=O)(O)O)[C@@H](O)[C@H]1O [ATP]
Kd (PfGRP78-NBD mut (Y39F)): 312000 ± 15000 nM | Kd (huGRP78-NBD [1]; ± standard error, calculated from kinetic constants, 25 °C, read-out: affinity constant (Kd) determined by SPR, huGRP78-NBD): 14000 ± 7000 nM | fold decrease in affinity of malaria chaperone compared to the human counterpart (PfGRP78-NBD wt; SPR Kd, PfGRP78-NBD vs huGRP78-NBD): 23 fold | Kd (PfGRP78-NBD wt; ± standard error, affinity analysis, 25 °C, read-out: affinity constant (Kd) determined by SPR, PfGRP78-NBD wt): 333000 ± 74000 nM | DSF effect on thermal stability of PfGRP78-NBD (PfGRP78-NBD): interacted

SMILES: CCN(CC)CCCC(C)Nc1ccnc2cc(Cl)ccc12 (centres unmarked) [CQ, chloroquine]
EC50 [2, 6]: 50 ± 11 nM | EC50 (Plasmodium falciparum W2; [7]): 230 ± 30 nM

EC50 ([2]; chloroquine-sensitive strain, 72 hours, average of three ± SD): 0.4 ± 0.07 nM | EC50 (Plasmodium falciparum W2; chloroquine-resistant strain, 72 hours, average of three ± SD): 0.1 ± 0.02 nM
SMILES: C[C@H]1[C@@H](O)O[C@@H]2O[C@@]3(C)CC[C@H]4[C@H](C)CC[C@@H]1[C@@]24OO3 [DHA]

SMILES: CN(NC(=O)CC(=O)NN(C)C(=S)c1ccccc1)C(=S)c1ccccc1 [Elesclomol]
EC50 ([2]; Plasmodium falciparum, 3D7, chloroquine-sensitive strain, 72 hours, average of three ± SD): 50 ± 17 nM | affinity constant (Kd) determined by SPR, huGRP78-NBD (huGRP78-NBD [1]; [4]): N.B. | affinity constant (Kd) determined by SPR, PfGRP78-NBD wt (PfGRP78-NBD wt; [5]): N.B. | DSF effect on thermal stability of PfGRP78-NBD (PfGRP78-NBD): non-binders | EC50 (Plasmodium falciparum W2; Plasmodium falciparum, W2, chloroquine-resistant strain, 72 hours, average of three ± SD): 60 ± 10 nM

SMILES: C=Cc1cc(OC)c2c(c1)c(=O)oc1c2cc(OC)c2c(O)ccc(C3OC(C(C)O)C(O)C3O)c21 (centres unmarked) [Gilvocarcin V]
EC50 [2, 6]: 20 ± 4 nM | affinity constant (Kd) determined by SPR, huGRP78-NBD (huGRP78-NBD [1]; [4]): N.B. | affinity constant (Kd) determined by SPR, huGRP78-NBD (huGRP78-NBD [1]; ± standard error, calculated from kinetic constants, 25 °C, listed as Gilvocarcin A): too weak to accurately determine its dissociation constant | affinity constant (Kd) determined by SPR, PfGRP78-NBD wt (PfGRP78-NBD wt; [5]): N.B. | affinity constant (Kd) determined by SPR, PfGRP78-NBD wt (PfGRP78-NBD wt; ± standard error, affinity analysis, 25 °C, listed as Gilvocarcin A): too weak to accurately determine its dissociation constant | DSF effect on thermal stability of PfGRP78-NBD (PfGRP78-NBD): increased the thermal stability | EC50 (Plasmodium falciparum W2; [7]): 80 ± 40 nM

SMILES: CCn1c(=O)/c(=C2\Sc3ccccc3N2C)s/c1=C\c1cccc[n+]1CC [MKT-077]
EC50 [2, 6]: 70 ± 20 nM | Kd (huGRP78-NBD [1]): 16000 ± 170 nM | ΔTm at 500 µM (PfGRP78-FL): 0.6 °C | DSF effect on thermal stability of human GRP78-NBD (huGRP78-NBD [3]): destabilized | times more selective towards P. falciparum (HCT-116; HCT-116 vs P. falciparum EC50, Results text b30): 14 times | EC50 (HCT-116; Homo sapiens, HCT-116, read-out: EC50, growth inhibition, HCT-116): 980 ± 230 nM | Kd (PfGRP78-NBD wt): 16400 ± 1700 nM | DSF effect on thermal stability of PfGRP78-NBD (PfGRP78-NBD): significant thermal destabilization | EC50 (Plasmodium falciparum W2; [7]): 70 ± 30 nM

SMILES: N#Cc1ccc(COCC2OC(n3c(NCc4ccc(Cl)c(Cl)c4)nc4c(N)ncnc43)C(O)C2O)cc1 (centres unmarked) [VER-155008]
EC50 [2, 6]: 82100 ± 49700 nM | EC50 (HCT-116; HCT-116, human cell line, average of three ± SD, read-out: EC50, growth inhibition, HCT-116): 15710 ± 70 nM | Kd (PfGRP78-NBD wt): 164000 ± 13600 nM | DSF effect on thermal stability of PfGRP78-NBD (PfGRP78-NBD): increased the thermal stability | EC50 (Plasmodium falciparum W2; [7]): 39500 nM
